Like-named read-outs stand apart in the source and are kept apart here.
How the values were obtained:
[1] = test system: green peach aphid (Myzus persicae); assay: Myzus test (MYZUPE spray treatment); type: in vivo; conditions: Myzus persicae, foliar, read-out: effect in % (aphids killed)
From the text: Solvent: 78 parts by weight of acetone
(§1) Solvent: 78.0 parts by weight of acetone

[2] = log P determination by HPLC (EEC Directive 79/831 Annex V.A8); type: physicochemical
Protocol: The measurements were carried out using an Agilent 1100 LC system with a 50*4.6 Zorbax Eclipse C18 1.8 μm column (oven temperature 55° C., flow rate 2.0 ml/min).
The following mobile phases were used:
Mobile phase A: acetonitrile+1000 μl of formic acid/l
Mobile phase B: Millipore water+900 μl of formic acid/l

Lucilia cuprina larvae = assay: Lucilia cuprina test (LUCICU); type: in vivo; conditions: in Equus caballus, read-out: kill in % (larvae killed)
Protocol: (§2) Solvent: dimethyl sulphoxide
Vessels containing horse meat treated with the active compound preparation of the desired concentration are populated with Lucilia cuprina larvae.
(§3) After the desired period of time, the kill in % is determined.

Boophilus microplus = Boophilus microplus test (BOOPMI injection); type: in vivo; conditions: Rhipicephalus microplus, read-out: effect in % (no fertile eggs laid)
Protocol: as §2
The solution of active compound is injected into the abdomen (Boophilus microplus), and the animals are transferred into dishes and kept in a climatised room. The activity is assessed by […] of fertile eggs.
100% means that none of the ticks has laid any fertile eggs.

[3] = test system: larvae of the mustard beetle (Phaedon cochleariae); assay: Phaedon test (PHAECO spray treatment); conditions: Phaedon cochleariae, in Brassica rapa, foliar, read-out: effect in % (beetle larvae killed)
[4] = test system: caterpillars of the armyworm (Spodoptera frugiperda); assay: Spodoptera frugiperda test (SPODFR spray treatment); type: in vivo; conditions: Spodoptera frugiperda, foliar, read-out: effect in % (caterpillars killed)
From the text: as §1

adult Musca domestica = assay: Musca domestica test (MUSCDO); type: in vivo; conditions: treated sponge, read-out: kill in % (flies killed)
Protocol: as §2
Vessels containing a sponge treated with the active compound preparation of the desired concentration are populated with adult Musca domestica.
as §3

[5] = test system: two-spotted spidermite (Tetranychus urticae); assay: Tetranychus urticae test; OP-resistant (TETRUR spray application); type: in vivo; conditions: read-out: mortality in % (spider mites killed)
From the text: Solvent: 78.0 parts by weight acetone
• 1.5 parts by weight dimethylformamide Emulsifier 0.5 part by weight alkylaryl polyglycol ether
French beans (Phaseolus vulgaris) which are heavily infested with all stages of the two-spotted spidermite (Tetranychus urticae) are sprayed with a preparation of the active compound at the desired concentration.

[6] = 20 μg/animal, injection into the abdomen
[7] = by HPLC according to EEC Directive 79/831 Annex V.A8, read-out: log P

| SMILES | pest or weed control at 100 g/ha ([1]; in Brassica rapa) [%] | chromatographic logP ([2]; log P) | pest or weed control at 100 ppm (Lucilia cuprina larvae) [%] | pest or weed control at 0.02 mg (Boophilus microplus; [6]) [%] | pest or weed control at 100 g/ha [3] [%] | pest or weed control at 100 g/ha ([4]; in Zea mays) [%] | pest or weed control at 100 ppm (adult Musca domestica) [%] | chromatographic logP [2, 7] | pest or weed control at 0.02 mg (Boophilus microplus) [%] | pest or weed control at 100 g/ha ([1]; application rate 100 g/ha, Chinese cabbage leaf discs) [%] | mortality at 20 g/ha [5] [%] | chromatographic logP ([2]; reversed-phase HPLC, Zorbax Eclipse C18 column, determined by HPLC according to EEC Directive 79/831 Annex V.A8, read-out: log P) | pest or weed control at 100 g/ha ([4]; application rate 100 g/ha, maize leaf discs) [%] |
| --- | --- | --- | --- | --- | --- | --- | --- | --- | --- | --- | --- | --- | --- |
| Cc1cc(F)cc(C(=O)NC2CC2)c1NC(=O)c1cc(Cn2nnc(C(F)(F)C(F)(F)F)n2)nn1-c1ncccc1Cl [Example 220] | ≥ 80 | 3.3 | ≥ 80 | ≥ 80 | ≥ 80 | ≥ 80 |  |  |  |  |  |  |  |
| CNC(=O)c1cc(Cl)cc(C)c1NC(=O)c1cc(Cn2nnc(C(F)(F)F)n2)nn1-c1ncccc1Cl [Example 11] | ≥ 80 | 3.05 | ≥ 80 | ≥ 80 | ≥ 80 | ≥ 80 | ≥ 80 |  |  |  |  |  |  |
| CNC(=O)c1cc(C#N)cc(C)c1NC(=O)c1cc(Cn2nnc(C(F)(F)C(F)(F)C(F)(F)F)n2)nn1-c1ncccc1Cl [Example 5] | ≥ 80 |  | ≥ 80 |  | ≥ 80 | ≥ 80 | ≥ 80 | 3.43 | ≥ 80 |  |  |  |  |
| Cc1cc(F)cc(C(=O)NC(C)C)c1NC(=O)c1cc(Cn2nnc(C(F)F)n2)nn1-c1ncccc1Cl [Example 295] | ≥ 80 | 2.64 | ≥ 80 | ≥ 80 | ≥ 80 | ≥ 80 |  |  |  |  |  |  |  |
| CC(C)(C)NC(=O)c1cc(Cl)cc(Cl)c1NC(=O)c1cc(Cn2nnc(C(F)(F)C(F)(F)F)n2)nn1-c1ncccc1Cl [Example 223] | ≥ 80 | 4.16 | ≥ 80 | ≥ 80 | ≥ 80 | ≥ 80 | ≥ 80 |  |  |  |  |  |  |
| Cc1cc(C#N)cc(C(=O)NC(C)C)c1NC(=O)c1cc(Cn2nnc(C(F)(F)F)n2)nn1-c1ncccc1Cl [Example 10] |  | 3.07 | ≥ 80 | ≥ 80 | ≥ 80 | ≥ 80 | ≥ 80 |  |  |  |  |  |  |
| CNC(=O)c1cc(Cl)cc(C)c1NC(=O)c1cc(Cn2nnc(C(F)(F)C(F)(F)C(F)(F)F)n2)nn1-c1ncccc1Cl [Example 2] | ≥ 80 |  | ≥ 80 |  | ≥ 80 | ≥ 80 | ≥ 80 | 3.75 | ≥ 80 |  |  |  |  |
| Cc1cc(Cl)cc(C(N)=O)c1NC(=O)c1cc(Cn2nnc(C(F)(F)C(F)(F)C(F)(F)F)n2)nn1-c1ncccc1Cl [Example 3] |  |  | ≥ 80 |  | ≥ 80 | ≥ 80 | ≥ 80 | 3.49 | ≥ 80 |  |  |  |  |
| CNC(=O)c1cc(Cl)cc(C)c1NC(=O)c1cc(Cn2nnnc2C(F)(F)F)nn1-c1ccc(Cl)cc1Cl [Example 449] |  |  |  |  | ≥ 80 |  |  |  |  | ≥ 80 | ≥ 80 | 3.64 | ≥ 80 |
| Cc1cc(C#N)cc(C(N)=O)c1NC(=O)c1cc(Cn2nnc(C(F)(F)C(F)(F)C(F)(F)F)n2)nn1-c1ncccc1Cl [Example 7] | ≥ 80 |  | ≥ 80 |  | ≥ 80 | ≥ 80 | ≥ 80 | 3.17 | ≥ 80 |  |  |  |  |
| Cc1cc(C#N)cc(C(=O)NC2CC2)c1NC(=O)c1cc(Cn2nnc(C(F)(F)F)n2)nn1-c1ncccc1Cl [Example 13] | ≥ 80 | 2.84 | ≥ 80 | ≥ 80 | ≥ 80 | ≥ 80 | ≥ 80 |  |  |  |  |  |  |
| Cc1cc(I)cc(C(=O)NC(C)(C)C)c1NC(=O)c1cc(Cn2nnc(C(F)(F)C(F)(F)F)n2)nn1-c1ncccc1Cl [Example 218] |  | 4.5 | ≥ 80 | ≥ 80 | ≥ 80 | ≥ 80 | ≥ 80 |  |  |  |  |  |  |
| Cc1cc(Cl)cc(C(=O)NC(C)C)c1NC(=O)c1cc(Cn2nnc(C(F)(C(F)(F)F)C(F)(F)F)n2)nn1-c1ncccc1Cl [Example 363] |  | 4.21 |  |  | ≥ 80 | ≥ 80 |  |  |  |  | ≥ 80 |  |  |
